Earlier results as cited in patent US7186882B2, “Transgenic mouse over-expressing calreticulin (CRT) in vascular smooth muscle cells” (priority 2003, dated 2007).
Where a SMILES comes first, the peptide text is derived from it. Bridges are numbered along the chain shown (N, C = ends).

Columns and labels:
[1] = system: MMP-2/MMP-9; conditions: MMP-2/MMP-9 inhibitor, values given as illustrative
[2] = system: CRT; conditions: siRNA to nucleotides 1917–1937 of SEQ ID NO. 1; Troussard et al., 2003
[3] = system: intimal hyperplasia after arterial injury; conditions: adult rats, exogenously added CRT; Dai et al., 1997
[4] = system: endothelial cells; conditions: added to the endothelial culture media; Pike et al., 1999

IC50 [1]	Molecule	other results
240 to 350 nM	O=C(O)[C@@H](Cc1ccccc1)NS(=O)(=O)c1ccc(-c2ccccc2)cc1 [MMP-2/MMP-9 inhibitor I, (2R)-2-[(4-Biphenylylsulfonyl)amino]-3-phenylpropionic Acid]	
	siRNA: small interference RNA to CRT mRNA, sense 5′-GCUGAUCGUGCGGCCGGACAA dTT 3′, anti-sense 5′-UUGUCCGGCCGCACGAUCAGC dTT 3′ (sense GCUGAUCGUGCGGCCGGACAATT; antisense UUGUCCGGCCGCACGAUCAGCTT; chemistry not fully specified)	expression of CRT [2]: significantly diminish the expression of CRT
10000 nM	CC(C)C[C@@H]1NC(=O)[C@H]([C@@H](C)O)NC(=O)[C@H](Cc2ccccc2)NC(=O)CNC(=O)[C@H](Cc2c[nH]c3ccccc23)NC(=O)[C@H](Cc2cnc[nH]2)NC(=O)[C@H]([C@@H](C)O)NC(=O)[C@H]([C@@H](C)O)NC(=O)[C@@H](N)CSSC[C@@H](C(=O)O)NC1=O [MMP-2/MMP-9 inhibitor III] (H-CTTHWGFTLC-OH; disulfide 1-10)	
17 to 30 nM	O=C(NO)[C@@H](Cc1ccccc1)NS(=O)(=O)c1ccc(-c2ccccc2)cc1 [MMP-2/MMP-9 inhibitor II]	
	CRT: calreticulin, 46 kDa ER protein, exogenously added to vascular cells or vessel lumen (protein, CRT peptide sequence from CRT cDNA, calreticulin, 46 kDa ER protein, exogenously added to vascular cells or vessel lumen) MLLPVPLLLGLLGLAAAEPVVYFKEQFLDGDGWTERWIESKHKSDFGKFVLSSGKFYGDQEKDKGLQTSQDARFYALSARFEPFSNKGQPLVVQFTVKHEQNIDCGGGYVKLFPAGLDQKDMHGDSEYNIMFGPDICGPGTKKVHVIFNYKGKNVLINKDIRCKDDEFTHLYTLIVRPDNTYEVKIDNSQVESGSLEDDWDFLPPKKIKDPDASKPEDWDERAKIDDPTDSKPEDWDKPEHIPDPDAKKPEDWDEEMDGEWEPPVIQNPEYKGEWKPRQIDNPDYKGTWIHPEIDNPEYSPDANIYAYDSFAVLGLDLWQVKSGTIFDNFLITNDEAYAEEFGNETWGVTKTAEKQMKDKQDEEQRLKEEEEEKKRKEEEEAEEDEEDKDDKEDEDEDEEDKDEEEEEAAAGQAKDEL	intimal hyperplasia (restenosis) after arterial injury [3]: reducing intimal hyperplasia; endothelial cell proliferation [4]: selectively inhibits endothelial cell proliferation
